Results on 6 compounds are retold here after US20240108645A1, “SENESCENCE AND SENESCENCE ASSOCIATED SECRETORY PHENOTYPE” (Metro Biotech NSW Pty Ltd, priority 2013, published 2024).

Each structure is given as a SMILES string. Entries after “also recorded” stand apart in the source; their conditions may differ.

For data set [1], the system named is p16^INK4a. Description: Imiquimod-induced skin senescence in p16^LUC mice, bioluminescence imaging. Type of data set: in vivo, SKH1 hairless p16^LUC mice. From the text:
In order to study the effects of NAD^+ agonists on cellular senescence associated with the skin, which is associated with inflammation, senescence was induced in a luciferase knockin (p16^LUC) mouse (Burd et al. (2013) Cell 152: 340-351) using topical application of Imiquimod. Imiquimod (IMQ) is an immune modulator topically applied for skin conditions such as melanoma and genital warts. The side effect of IMQ is severe, painful inflammation and aging of the skin.
P16^LUC mice contain the firefly luciferase cDNA inserted into the translational start site of the endogenous p16^INK4a gene. Conditions which induce expression of the p16^INK4a gene, and therefore induce cellular senescence, also induce expression of firefly luciferase in p16^LUC mice (Burd et al. […] Cell 152:340-351; Sorrentino et al. (2014) The Journal of Clinical Investigation, 124(1): 169-351).
The following formulations were prepared: • 1. Cream carrier (containing no IMQ) (control or ctrl); • 2. IMQ cream (containing 5% IMQ) mixed with 10% water (IMQ); and • 3. IMQ cream (containing 5% IMQ) mixed with […] NMN (equating to 5% NMN) (IMQ+NMN).
Each of 1, 2 and 3 were applied daily to the rump of SKH1 hairless p16^LUC mice for 4 days. The animals were subjected to bioluminescence imaging as a readout for senescence. Areas of fluorescence are indicated as darkened areas in FIG. 4.

In data set [2] the test system is 3T3-L1 adipocytes. Description: Intracellular lipid content (oil red o) of 3T3-L1 adipocytes treated with antiretroviral agents. As to conditions: for intracellular lipid content (oil red o, absorbance at 544 nm): 24 hr. As to the method:
The ability of NAD^+ agonists to reduce or prevent lipodystrophy associated with anti-retroviral compounds was assessed. The ability of NMN to prevent or reduce lipodystrophy was tested by determining the lipid content of 3T3-L1 adipocytes treated with a vehicle, or the antiretroviral agent stavudine, either alone or in combination with NMN.
3T3-L1 adipocytes were treated for 24 hr with the HIV antiretroviral compound stavudine (10 nM) in the presence or absence of NMN (1 mM). Intracellular lipid content was assessed using oil red o staining, which was quantified by reading absorbance at 544 nm. Error bars: SD.
In order to further test the ability of NAD^+ agonists to reduce lipodystrophy associated with antiretroviral agents, 3T3-L1 adipocytes were treated for 24 hr with various antiretroviral compounds (30 μM) in the presence or absence of NMN (1 mM) or apigenin (25 μM). Intracellular lipid content was assessed using oil red o staining, which was quantified by reading absorbance at 544 nm.

Data set [3] can be described thus: Blood glucose and free water (echoMRI) in dexamethasone treated rats. The format is in vivo, Sprague-Dawley rats. As to conditions: one day after injection. As to the method:
To study the effects of NAD^+ agonists on senescence associated with treatment with corticoids, 250 g Sprague-Dawley rats were administered daily intraperitoneal injections of the following formulations for 3 days: • 1. Vehicle: saline • 2. Dexamethasone: 0.8 mg/kg of animal dexamethasone sodium phosphate • 3. Dexamethasone+NMN: 0.8 mg/kg body weight dexamethasone sodium phosphate and 1.5 g/kg body weight NMN.
After 3 days, blood glucose was determined.
Free water was assessed by echMRI one day after injection of the above formulations.

Data set [4] deals with C2C12 myoblasts. Briefly: SA-β-Gal activity in C2C12 myoblasts by flow cytometry with C12FDG. Type of data set: cell-based. As to the method: To determine the ability of NAD^+ agonists to prevent or reduce senescence associated with treatment with corticoids, C2C12 myoblasts were assayed for SA-β-Gal activity following contact with vehicle, NMN, apigenin, dexamethasone, dexamethasone and NMN, and dexamethasone and apigenin. SA-β-Gal activity was determined using the fluorogenic substrate, C12FDG, by flow cytometry (protocol of Debacq-Chainiaux et al. Nature Protocols 2009). FIG. 7A: […] FIGS. 7B and 7C: […] SA-β-Gal activity was decreased with NMN and/or apigenin. All data are presented as the mean value. * p<0.05, **** p<0.0001, using two-way ANOVA multiple comparisons test.
(A flow cytometer gives signals particle by particle.)

The subject of data set [5] is 3T3-L1 adipocytes. Briefly: SA-β-gal chromogenic staining of dexamethasone treated 3T3-L1 adipocytes. The format is cell-based. As to conditions: 5 days; dexamethasone 1, 0.5, 0.1 or 0.01 mg/ml; 1 mM NMN, 25 mM apigenin. As to the method:
To further investigate the effects of NAD^+ agonists on dexamethasone induced senescence, 3T3-L1 adipocytes were treated for 5 days with ethanol (control), or 1 mg/ml, 0.5 mg/ml, 0.1 mg/ml or 0.01 mg/ml of dexamethasone in combination with either DMSA, 1 mM NMN, 25 mM apigenin, or 1 mM NMN and 25 mM apigenin and subjected to senescence associated beta-galactosidase staining according to the chromogenic protocol of Debacq-Chainiaux F et al Nature Protocols 2009.

The subject of data set [6] is C2C12 myoblasts. Description: SA-β-Gal staining of C2C12 myoblasts incubated with various agents. The format is cell-based. As to the method: The ability of NAD^+ agonists to reduce senescence associated with various agents was tested by inclubating C2C12 myoblasts with various agents in the presence or absence of NMN or apigenin, and the cells subsequent stained as mentioned above for SA-β-Gal activity. The following agents were tested: [table]

A further data set deals with T1, CD38 (Homo sapiens, UniProt P28907).
T1 sequence (P28907 1-300): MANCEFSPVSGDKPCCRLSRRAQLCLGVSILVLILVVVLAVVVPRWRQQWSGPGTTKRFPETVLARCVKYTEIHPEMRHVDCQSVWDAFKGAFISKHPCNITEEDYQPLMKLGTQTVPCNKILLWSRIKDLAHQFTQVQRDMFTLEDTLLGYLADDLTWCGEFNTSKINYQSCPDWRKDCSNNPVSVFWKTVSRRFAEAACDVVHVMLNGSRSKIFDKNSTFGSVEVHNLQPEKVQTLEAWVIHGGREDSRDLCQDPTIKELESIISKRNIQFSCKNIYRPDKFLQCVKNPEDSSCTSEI
The following applies: in vitro; Esande et al. (2013) Diabetes; cited from earlier work.

The nature of data set [7]: Body weight after doxorubicin. Type of data set: in vivo, male C57BL6 mice. As to conditions: doxorubicin 10 mg/kg i.p. single dose at day 8. As to the method:
Vehicle control: 10% DMSO in PBS administered intraperitoneally; • 2. Apigenin: administered in diet at 500 mg/kg of diet, in addition to vehicle control administered i.p.; • 3. […] Apigenin administered in diet of 500 mg/kg of diet, and doxorubicin administered at 10 mg/kg body weight i.p. Apigenin was administered 8 days prior to administration of a single dose of doxorubicin. Body weight was assessed during the course of the experiment as a read-out of general health and malaise, the results of which are shown in FIG. 11.

The test system of data set [8] is p16^INK4A. Briefly: Doxorubicin-induced senescence in p16^LUC mice, bioluminescence/CT imaging. The format is in vivo. The following applies: doxorubicin alone 1 mg/kg i.p.; imaging 24 hours after treatment. As to the method:
Vehicle control: 10% DMSO in PBS administered intraperitoneally; • 2. Apigenin: administered in diet at 500 mg/kg of food in addition to vehicle control administered i.p.; • 3. […] Apigenin administered in chow diet at 500 mg/kg of food, and doxorubicin administered at 1 mg/kg body weight i.p. Apigenin was administered 4 days prior to administration of doxorubicin. The animals were subjected to bioluminescence/CT imaging (Spectrum-CT instrument, PerkinElmer) as a readout for senescence 24 hours after treatment was completed. Areas of luminescence are shown as lightened areas in FIG. 5 and are indicated by an arrow.

Consider `CC(C)Cn1cnc2c(N)nc3ccccc3c21` [IMQ, Imiquimod, reference compound], for which, in the data set with p16^INK4a [1] (IMQ cream (5% IMQ) alone, applied daily to rump for 4 days), the “p16^IN14a induction (bioluminescence)” value is on record as “showed areas of p16^IN14a induction”.
Consider `Cc1cn([C@H]2C=C[C@@H](CO)O2)c(=O)[nH]c1=O` [stavudine, 2′,3′-didehydro-2′,3′-dideoxythymidine, reference compound], for which the “intracellular lipid content (oil red o, absorbance at 544 nm)” value in the data set with 3T3-L1 adipocytes [2] (stavudine 10 nM alone, vs vehicle) is given as “reduction in lipid content”.
For the compound `C[C@@H]1C[C@H]2[C@@H]3CCC4=CC(=O)C=C[C@]4(C)[C@@]3(F)[C@@H](O)C[C@]2(C)[C@@]1(O)C(=O)CO` [dexamethasone, reference compound], in data set [3] (dexamethasone sodium phosphate 0.8 mg/kg i.p.), the “free water (echoMRI)” value is “significantly reduced the amount of free water”.
As to `NC(=O)c1ccc[n+]([C@@H]2O[C@H](COP(=O)([O-])O)[C@@H](O)[C@H]2O)c1` [NMN, nicotinamide mononucleotide], the “lipodystrophy (intracellular lipid content, oil red o)” value with 3T3-L1 adipocytes [2] (NMN 1 mM, cells treated 24 hr with 30 μM AZT, 3TC, stavudine, Efavirenz, Lopinavir, Ritonavir, Tipranavir) is given as “reduced lipodystrophy”. Further, in the data set with 3T3-L1 adipocytes [2] (stavudine 10 nM and NMN 1 mM, vs NMN and vehicle), the “intracellular lipid content (oil red o, absorbance at 544 nm)” value is recorded as “no reduction in lipid content”. In addition, the “free water (echoMRI)” value in data set [3] (dexamethasone sodium phosphate 0.8 mg/kg plus NMN 1.5 g/kg i.p., vs dexamethasone) is given as “reversed this effect”. In addition, the “SA-β-Gal activity (FIG. 7A)” value in the data set with C2C12 myoblasts [4] (48 hours, NMN 1 mM, both ethanol vehicle and dexamethasone (0.1 μg/ml) treated groups) is listed as “significantly reduced SA-β-Gal activity”. Also, the “SA-β-Gal activity (FIG. 7B)” value with C2C12 myoblasts [4] (72 hours, dexamethasone sodium phosphate 250 nM or PBS, NMN 1 mM or apigenin 25 uM) was “decreased”. For the same compound, the “SA-β-Gal activity (FIG. 7C)” value in the data set with C2C12 myoblasts [4] (96 hours, dexamethasone sodium phosphate 250 nM or PBS, NMN 1 mM or apigenin 25 uM) is given as “decreased”. In addition, the “percentage of cells which exhibited SA-β-Gal activity following treatment with dexamethasone” value in the data set with C2C12 myoblasts [4] (summary of FIGS. 7A-7C) is listed as “reduced the percentage of cells which exhibited SA-β-Gal activity”. For the same compound, the “SA-β-gal staining (blue cells), dexamethasone induced senescence” value with 3T3-L1 adipocytes [5] is recorded as “reduced SA-β-gal staining; also recorded: reduce or prevent senescence induced by dexamethasone”. Also, the “extent of senescence (proportion of cells stained blue, SA-β-Gal activity)” value with C2C12 myoblasts [6] (agents of the table of b212 with vs without apigenin or NMN) is on record as “reduce the extent of senescence induced by the agents tested”. In addition, the “extent to which the cells undergo senescence” value in the data set with C2C12 myoblasts [6] (co-administration with AZT, 3TC, zalcitabine, efavirenze, lopinavir, ritonavir, nevirapine, tipranavir, tenofovir, invirase vs agent alone) was “reduces the extent to which the cells undergo senescence”; in the data set on C2C12 myoblasts [6] (co-administration with PPARγ agonist rosiglitazone vs rosiglitazone alone), “reduces the extent to which the cells undergo senescence”; in the data set with C2C12 myoblasts [6] (co-administration with antiprotozoal agent quinacrine vs quinacrine alone), “reduces the extent to which the cells undergo senescence”; with C2C12 myoblasts [6] (co-administration with each of the chemotherapeutic agents listed in b109 vs agent alone) it was “reduces the extent to which the cells undergo senescence”; with C2C12 myoblasts [6] (co-administration with xanthine oxidase inhibitor allopurinol vs allopurinol alone), “reduces the extent to which the cells undergo senescence”; in the data set with C2C12 myoblasts [6] (co-administration with zolendronate vs zolendronate alone) it was “reduces the extent to which the cells undergo senescence”. In addition, the “erythema, scaling and redness of skin” value with p16^INK4a [1] (IMQ and NMN topical vs IMQ) is “less erythema, scaling and redness”. In addition, the “p16^IN14a induction (bioluminescence)” value in the data set with p16^INK4a [1] (IMQ cream (5% IMQ) mixed with NMN (5% NMN), topical daily for 4 days, vs IMQ) was “little or no signs of p16^IN14a induction”.
Regarding `O=c1c(O)c(-c2ccc(O)c(O)c2)oc2cc(O)cc(O)c12` [quercetin, 2-(3,4-dihydroxyphenyl)-3,5,7-trihydroxy-4H-chromen-4-one, reference compound], the “inhibition of CD38 activity” value at CD38 is on record as “inhibitors of CD38 activity in vitro”.
With `COc1cccc2c1C(=O)c1c(O)c3c(c(O)c1C2=O)C[C@@](O)(C(=O)CO)C[C@@H]3O[C@H]1C[C@H](N)[C@H](O)[C@H](C)O1` [doxorubicin, reference compound], the body weight result in data set [7] is reported as “permanent loss of body weight for at least 40 days”. Besides, in the data set on p16^INK4A [8], the “p16^INK4A induction (bioluminescence)” value is recorded as “large areas of bioluminescence”.
